The numbers were not newly measured in paper PMC11181328 (Journal of Medicinal Chemistry, 2024), which cites them from elsewhere.

One data set has as its target hERG (Homo sapiens, UniProt Q12809). Particulars: read-out: hERG IC50; cited from earlier work. (In general: Block of hERG is tested as a sign of cardiac risk.)
The subject of data set [1] is male Swiss Webster mice. The conditions noted are these: 0.1 mg/kg; cited from earlier work.
Data set [2] concerns male Swiss Webster mice. Particulars: warm-water tail immersion; cited from earlier work.
The conditions of data set [3]: same conditions; cited from earlier work.
Another data set has as its target T1, DOR (Homo sapiens, UniProt P41143).
T1 construct: expressed in transfected cells; membrane homogenate
The conditions noted are these: read-out: radioligand binding affinity (Ki, nM) DOR; [3H]diprenorphine; cited from earlier work.

T1 sequence (P41143 whole entry): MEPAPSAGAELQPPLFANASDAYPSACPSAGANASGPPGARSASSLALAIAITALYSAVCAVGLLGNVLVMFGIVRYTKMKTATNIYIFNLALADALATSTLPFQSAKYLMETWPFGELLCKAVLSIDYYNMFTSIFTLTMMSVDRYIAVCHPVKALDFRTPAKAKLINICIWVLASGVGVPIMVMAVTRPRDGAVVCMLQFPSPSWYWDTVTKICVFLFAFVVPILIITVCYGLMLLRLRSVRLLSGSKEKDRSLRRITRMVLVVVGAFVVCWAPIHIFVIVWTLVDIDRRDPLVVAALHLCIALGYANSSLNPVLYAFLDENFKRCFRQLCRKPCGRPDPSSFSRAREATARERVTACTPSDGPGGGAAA
Chain of hERG (Q12809 whole entry): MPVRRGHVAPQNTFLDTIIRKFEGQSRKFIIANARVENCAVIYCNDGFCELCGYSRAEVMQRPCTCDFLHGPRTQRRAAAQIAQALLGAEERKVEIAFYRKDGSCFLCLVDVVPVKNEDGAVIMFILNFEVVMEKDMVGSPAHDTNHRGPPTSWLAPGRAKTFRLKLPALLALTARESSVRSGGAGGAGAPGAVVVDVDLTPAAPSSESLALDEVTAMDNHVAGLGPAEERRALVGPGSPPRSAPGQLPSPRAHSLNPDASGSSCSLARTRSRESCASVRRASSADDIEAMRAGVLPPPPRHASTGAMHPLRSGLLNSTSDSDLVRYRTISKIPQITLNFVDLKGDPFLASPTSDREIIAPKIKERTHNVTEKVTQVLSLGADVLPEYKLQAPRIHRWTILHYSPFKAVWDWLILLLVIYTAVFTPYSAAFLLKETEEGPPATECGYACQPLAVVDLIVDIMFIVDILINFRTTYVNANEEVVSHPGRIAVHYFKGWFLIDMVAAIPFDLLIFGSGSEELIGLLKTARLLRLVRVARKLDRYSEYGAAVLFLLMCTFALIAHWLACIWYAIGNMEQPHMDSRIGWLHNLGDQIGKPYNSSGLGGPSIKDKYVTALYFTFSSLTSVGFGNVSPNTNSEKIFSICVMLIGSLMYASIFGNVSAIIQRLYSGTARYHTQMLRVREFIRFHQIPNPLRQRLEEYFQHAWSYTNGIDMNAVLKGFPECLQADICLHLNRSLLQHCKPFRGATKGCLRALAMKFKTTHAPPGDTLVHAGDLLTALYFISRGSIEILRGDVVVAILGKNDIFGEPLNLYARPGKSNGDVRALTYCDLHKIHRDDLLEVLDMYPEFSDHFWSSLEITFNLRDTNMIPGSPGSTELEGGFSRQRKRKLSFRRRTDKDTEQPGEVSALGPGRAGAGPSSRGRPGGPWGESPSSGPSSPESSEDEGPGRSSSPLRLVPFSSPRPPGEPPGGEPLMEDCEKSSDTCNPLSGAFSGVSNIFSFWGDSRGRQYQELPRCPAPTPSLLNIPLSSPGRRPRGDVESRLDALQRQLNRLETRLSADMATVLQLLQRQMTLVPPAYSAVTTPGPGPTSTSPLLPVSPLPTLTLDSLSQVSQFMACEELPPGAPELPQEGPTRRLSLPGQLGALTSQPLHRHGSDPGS

As usually defined, the IC50 is the midpoint of a concentration-inhibition curve. For orientation: Ki means a dissociation constant, usually derived from enzyme kinetics or from competition with a known ligand. In the case of `CN(C(=O)/C=C/c1ccoc1)[C@H]1CC[C@@]2(O)[C@H]3Cc4ccc(O)c5c4[C@@]2(CCN3CC2CC2)[C@H]1O5.Cl` [NMF], on hERG, the IC50 is 6.7 µM. Besides, in the data set on male Swiss Webster mice [1], the “duration of antinociceptive effects” value is 1 h. In the data set with male Swiss Webster mice [2], the “potency ED50 [95% CI] mg/kg” value was 0.037 [0.014–0.096] mg/kg. In data set [3], the “half-life in rat liver S9 fraction” value is on record as 10 min. For the same molecule, at DOR, the inhibition constant (Ki) was 0.64 ± 0.11 nM.
